Laboratory results: US9664690B1, “Molecular diagnostic kits for evaluating stress” (The National Institute for Biotechnology in the Negev Ltd., priority 2013, dated 2017)

System: PBMCs
Test: GR antagonist block of MP immunosuppressive effects in anti-CD3 stimulated PBMCs (IFNg ELISA)
Format: cell-based, human
Settings: plate-bound anti-CD3 48 hours, MP plus mifepristone
Protocol: Peripheral blood lymphocytes were stimulated in 96-well culture plate (2×10^5 cells/well) with plate bound anti-CD3 mAb (0.5 μg/ml), and cultured for 48 h at 37° C. The cultured supernatants were removed and stored at […]. Cytokine concentration in the supernatants were measured by ELISA using human cytokine kits.
Another approach to investigate the functionality of GR is by the examination of the responsiveness of immune cell subsets to the glucocorticoid antagonist, mifepristone. […] This indicates an impairment in GR signaling which contributes to steroid resistance, which could be tested in stressed and non-stressed individuals as described herein. Such an impairment could also optionally act as a biomarker for the stress diagnostic kit according to at least some embodiments thereof.
PBMCs were purified from young healthy-aged and AD subjects, stimulated by plate-bound anti-CD3 mAb (0.5 micro-g/ml) for 48 hours in the presence of MP or with both MP and GR antagonist, mifepristone. The cultured supernatants were examined for IFNg production by ELISA; the results are shown as percentage of the levels measured without MP.

CC#C[C@]1(O)CC[C@H]2[C@@H]3CCC4=CC(=O)CCC4=C3[C@@H](c3ccc(N(C)C)cc3)C[C@@]21C [mifepristone]
blocking of MP immunosuppressive effects (IFNg production) (PBMCs of aged and Alzheimer's disease (AD) subjects): impaired
blocking of MP immunosuppressive effects (IFNg production) (PBMCs of young subjects): partially blocks
